From EP2848615A1, “New pyrazole derivatives as CRAC channel modulators” (Almirall, S.A., priority 2013, dated 2015)

How the values were obtained:
[1] = system: Jurkat E6-1 cells; experiment: Fluorescent Calcium Flux Assay (thapsigargin store depletion, FLIPR Calcium 5 dye); type: cell-based; details: Homo sapiens, Thapsigargin 10µM, 2mM final calcium concentration, read-out: Ca^2+ flux IC50
Method: Fluorescent Calcium Flux Assay
Jurkat E6-1 cells were obtained from ATCC (number TIB-152™) and maintained as ATCC recommend; in medium RPMI-1640 with 10% FBS at 37°C and 5% CO2.
Before the assay, Jurkat cells were grown at a density of 2 millions cells/ml in cell culture media (RPMI with 10% FBS) in a T-175 flask at 37°C and 5% CO2.
The day of the assay, cells were harvested by centrifugation (5 minutes at 1500 rpm) and the pellet were suspended in Ca^2+ free assay buffer (HBSS w/o Ca^2+ and Mg ^2+, 20mM Hepes and 1 mM MgCl2, pH 7.4) at a density of 5 million cells/ml.
Calcium depletion was initiated by the addition to the cell suspension of Thapsigarguin at a final assay concentration of 10µM. 20µl of the cellular suspension containing Thapsigargin (100.000 cells/well) were plated into 384 well plates (corning 3711) and incubated at RT for 15 minutes.
Test compounds were diluted in DMSO 100% to get a 10^-2M stock solution and serial dilutions 1/3 were performed in the same solvent. Then, 20µl of test compounds, diluted 75 times in Ca^2+ free assay buffer, were added to the cells and incubated at RT for 1h.
Once this incubation was completed, 5 µl of dye solution (FLIPR Calcium 5 Express Kit, Molecular Devices), prepared as Molecular Devices recommend, were added into the assay plates followed by an extra incubation period of 1 hour at room temperature. After the second incubation period, assay plates were placed into the FLIPR Tetra from Molecular Devices. Fluorescence was measured at a wavelength of 525nm after the dye excitation at 485nm. The initial baseline was measured during 20 seconds, and then 8µl of a 13mM Calcium solution in assay buffer were added (2mM final calcium concentration) except for basal wells, where assay buffer without calcium was added. At this time, changes in the cellular fluorescent were measured for an extra 80 seconds.
Peak and base line were taken for the calculation of the ratio (Peak/Base Line). Total, basal and compound well ratio values were used to calculate %Inhibition.

[2] = system: Jurkat E6-1 cells; experiment: In vitro Assay of Cytokine Release from T Cells (PHA-stimulated IL-2, ELISA); type: cell-based; details: Homo sapiens, PHA 20 µg/ml, 20 hours, IL-2 by ELISA, read-out: Jurkat IL2 IC50
Method: In vitro Assay of Cytokine Release from T Cells
Jurkat E6-1 cells were obtained from American Type Culture Collection (ATCC) and maintained in complete medium with 10% fetal bovine serum (FBS) at 37°C/5%CO2. Cells were plated in 100 µL of Dubelcco's Modified Eagle Medium (DMEM) with 1% FBS in a 96 well plate at a density of 1x10^6 cells/well and 50 µL of test compound was added. Cells were then stimulated by the addition of 50 µL of phytohemagglutinin (PHA) (final concentration 20 µg/ml) and incubated at 37°C/5%CO2 for 20 hours. On the following day, the supernatants were collected and assayed for IL-2 levels by ELISA according to the manufacturer's protocols. The IC50 value was calculated as the concentration at which 50% of secreted IL-2 in vehicle is inhibited.

Row | SMILES | IC50 [1] [µM] | IC50 [2] [µM]
1 | Cn1nc(-c2ccccc2)cc1NC(=O)c1cc(-c2c(F)cccc2Cl)[nH]n1 [Example 6, 5-(2-chloro-6-fluorophenyl)-N-(1-methyl-3-phenyl-1H-pyrazol-5-yl)-1H-pyrazole-3-carboxamide] | 0.559 | 0.41
2 | Cn1nc(C(F)(F)F)cc1NC(=O)c1cc(-c2c(F)cccc2Cl)[nH]n1 [Example 1, 5-(2-chloro-6-fluorophenyl)-N-[1-methyl-3-(trifluoromethyl)-1H-pyrazol-5-yl]-1H-pyrazole-3-carboxamide] | 0.332 | 0.13
3 | COc1ccc(OC)c(NC(=O)c2cc(-c3c(F)cccc3Cl)[nH]n2)c1 [Example 5, 5-(2-chloro-6-fluorophenyl)-N-(2,5-dimethoxyphenyl)-1H-pyrazole-3-carboxamide] | 0.135 | 0.062
